In patent US8609087B2, “Compounds and methods for identifying compounds which inhibit a new class of aspartyl proteases” (priority 1999, dated 2013):
Several values for one entry are separate records, joined by “and”; a condition that tells them apart may be missing. Equal values may be shown once. Entries after “also recorded” stand apart in the source; their conditions may differ. Square brackets hold non-standard residues; d marks the D form. Peptide text beside a SMILES is read from it. * marks the point of attachment. Sta = CC(C)C[C@H](N)[C@@H](O)CC(=O)O; Isovaleryl = CC(C)CC(=O)*; Nle = CCCC[C@H](N)C(=O)O

Biological target: TcpJ type 4 prepilin peptidase (TFPP) (Vibrio cholerae serotype O1, UniProt A5F385, P151Q/Q149P/S169T)
Type: biochemical

Compound | % Cleavage | Effect on TcpJ peptidase activity (in words)
CC(C)C[C@H](NC(=O)[C@@H](O)[C@H](N)Cc1ccccc1)C(=O)O [Bestatin] | 81% | –
Aprotinin | 100% | –
Cl.NCCc1ccc(S(=O)(=O)F)cc1 [Pefabloc SC] | 62% and 50% | partial effects
CC(=O)N[C@@H](CC(C)C)C(=O)N[C@@H](CC(C)C)C(=O)N[C@H](C=O)CCCNC(=N)N [Leupeptin] | 85% | –
O=c1oc(Cl)c(Cl)c2ccccc12 [3,4-DCI] | 89% and 54% | –
CC(C)CC(=O)N[C@H](C(=O)N[C@H](C(=O)N[C@@H](CC(C)C)[C@@H](O)CC(=O)N[C@@H](C)C(=O)N[C@@H](CC(C)C)[C@@H](O)CC(=O)O)C(C)C)C(C)C [Pepstatin] (Isovaleryl-VV[Sta]A[Sta]-OH) | 95% and 92% and 74% | complete insensitivity; also recorded: completely resistant
CC(C)C[C@H](NP(=O)(O)O[C@@H]1O[C@@H](C)[C@H](O)[C@@H](O)[C@H]1O)C(=O)N[C@@H](Cc1c[nH]c2ccccc12)C(=O)O [Phosphoramidon] | 89% | –
O=S(=O)(F)Cc1ccccc1 [PMSF] | 98% and 68% | partial effects
CCN1C(=O)C=CC1=O [NEM] | 30% | partial effects
CCCC[C@@H](C=O)NC(=O)[C@H](CC(C)C)NC(=O)[C@H](CC(C)C)NC(C)=O [Calpain inhibitor I] (Ac-Leu-Leu-[Nle]-aldehyde) | 87% | –
